The source of these data is publication PMC9145245, “Synthesis and Biochemical Evaluation of 8H-Indeno[1,2-d]thiazole Derivatives as Novel SARS-CoV-2 3CL Protease Inhibitors” (Molecules, 2022).

Like-named read-outs stand apart in the source and are kept apart here.

The target in this assay is SARS-CoV-2 3CL^pro (Severe acute respiratory syndrome coronavirus 2, UniProt P0DTD1). Put plainly: biochemical. In kind it is biochemical. Particulars: for inhibition at 20 µM: 20 μM compound; for inhibitory activity against SARS-CoV-2 3CL^pro (in words, SAR discussion): compared with 7a (7i–7k with 7h).
[1] abbreviates: recombinant 3CLpro 40 nM, mean ± SD, n = 3.
Setting [2] is: recombinant 3CLpro 40 nM, substrate 40 μM, mean ± SD, n = 3, read-out: SARS-CoV-2 3CL^pro IC50.

As a reminder, the IC50 is the concentration that gives 50% inhibition. Usually inhibition stands for the change of the read-out against control, counted positive when it falls. In turn, `COc1ccc2c(c1)Cc1sc(NC(=O)c3cccs3)nc1-2` [compound 7j, N-(6-methoxy-8H-indeno[1,2-d]thiazol-2-yl)thiophene-2-carboxamide] registered an IC50 greater than 20 µM. For the same compound, the inhibition at 20 µM under setting [1] was found to be 31.9 ± 18.2%.
As for `COc1ccc2c(c1)Cc1sc(NC(=O)c3ccc(Cl)cc3)nc1-2` [compound 7k, 4-chloro-N-(6-methoxy-8H-indeno[1,2-d]thiazol-2-yl)benzamide], under setting [1], the inhibition at 20 µM turned out to be 1.5 ± 4.5%. The IC50 under setting [2] was greater than 20 µM.
For `COc1ccc2c(c1)Cc1sc(NC(=O)c3cc(OC)c(OC)c(OC)c3)nc1-2` [compound 7f, 3,4,5-trimethoxy-N-(6-methoxy-8H-indeno[1,2-d]thiazol-2-yl)benzamide], the “inhibitory activity against SARS-CoV-2 3CL^pro (in words, SAR discussion)” value (shortened to “inhibitory activity”) is listed as “dropped significantly”. Under setting [1], the inhibition at 20 µM was 5 ± 5.6%. Besides, under setting [2], the IC50 is greater than 20 µM.
In the case of `COc1cc(OC)cc(C(=O)Nc2nc3c(s2)Cc2ccc(OC)cc2-3)c1` [compound 4, 3,5-dimethoxy-N-(5-methoxy-8H-indeno[1,2-d]thiazol-2-yl)benzamide], under setting [2], the IC50 amounted to 6.42 ± 0.9 µM.
Turning to `CCCCOc1ccc2c(c1)Cc1sc(NC(=O)c3cc(OC)cc(OC)c3)nc1-2` [compound 7b, N-(6-butoxy-8H-indeno[1,2-d]thiazol-2-yl)-3,5-dimethoxybenzamide], the “inhibitory activity” value is listed as “completely abolished”. Also, under setting [1], the inhibition at 20 µM turned out to be 0.5 ± 4.9%. The IC50 under setting [2] is greater than 20 µM.
On to `COc1ccc2c(c1)Cc1sc(NC(=O)c3cccc(F)c3)nc1-2` [compound 7i, 3-fluoro-N-(6-methoxy-8H-indeno[1,2-d]thiazol-2-yl)benzamide], for which, under setting [1], the inhibition at 20 µM came to 20.3 ± 4.7%. In addition, the IC50 under setting [2] was greater than 20 µM.
Take `COc1cc(OC)cc(C(=O)Nc2nc3c(s2)CCc2cc(OC)ccc2-3)c1` [compound 7l]: the “inhibitory activity” value is “did not show any inhibitory activity”. Under setting [1], the inhibition at 20 µM was -13.1 ± 1.7%. Moreover, under setting [2], the IC50 is greater than 20 µM.
Taken in the same sequence, the figures for `COc1cccc(C(=O)Nc2nc3c(s2)Cc2cc(OC)ccc2-3)c1` [compound 7h, 3-methoxy-N-(6-methoxy-8H-indeno[1,2-d]thiazol-2-yl)benzamide] were “almost maintained its inhibitory activities”, 72.5 ± 6.1% and 2.86 ± 0.11 µM.
For the compound `COc1cc(OC)cc(C(=O)Nc2nc(-c3ccc(OC)cc3C)cs2)c1` [compound 10a], the “inhibitory activity” value is “lost inhibitory activities”. The inhibition at 20 µM under setting [1] amounted to 1.9 ± 2.1%. In addition, the IC50 under setting [2] was greater than 20 µM.
As for `COc1cc(OC)cc(C(=O)Nc2nc3c(s2)Cc2cc(OC)ccc2-3)c1` [compound 7a], the inhibition at 20 µM under setting [1] came to 89.5 ± 2%. Moreover, the half-inhibitory concentration (IC50) under setting [2] is 1.28 ± 0.17 µM.
On to `COc1ccc2c(c1)Cc1sc(NC(=O)c3cc(OC(C)=O)cc(OC(C)=O)c3)nc1-2` [compound 7g, 5-((6-methoxy-8H-indeno[1,2-d]thiazol-2-yl)carbamoyl)-1,3-phenylene diacetate], for which the “inhibitory activity” value is “dropped significantly”. Besides, the inhibition at 20 µM under setting [1] amounted to 32.6 ± 6.8%. The IC50 under setting [2] is greater than 20 µM.
Taken in the same sequence, the figures for `COc1cc(OC)cc(C(=O)Nc2nc3c(s2)Cc2cc(Cl)ccc2-3)c1` [compound 7e, N-(6-chloro-8H-indeno[1,2-d]thiazol-2-yl)-3,5-dimethoxybenzamide] were “completely abolished”, 27.2 ± 5.3% and greater than 20 µM.
On the same counts, the results for `COc1cc(OC)cc(C(=O)Nc2nc(-c3ccc(OC)c(C)c3)cs2)c1` [compound 10b, 3,5-dimethoxy-N-(4-(4-methoxy-3-methylphenyl)thiazol-2-yl)benzamide] are “lost inhibitory activities”, 1.8 ± 3.5% and greater than 20 µM.
Taken in the same sequence, the figures for `COc1cc(OC)cc(C(=O)Nc2nc3c(s2)Cc2cc(OCC(C)C)ccc2-3)c1` [compound 7c, N-(6-isobutoxy-8H-indeno[1,2-d]thiazol-2-yl)-3,5-dimethoxybenzamide] were “completely abolished”, -3.1 ± 1.7% and greater than 20 µM.
For `COc1cc(OC)cc(C(=O)Nc2nc3c(s2)Cc2cc(C)ccc2-3)c1` [compound 7d, 3,5-dimethoxy-N-(6-methyl-8H-indeno[1,2-d]thiazol-2-yl)benzamide], the “inhibitory activity” value is “completely abolished”. Moreover, under setting [1], the inhibition at 20 µM came to 21.7 ± 2.2%. Under setting [2], the IC50 is greater than 20 µM.
